According to ChEMBL document CHEMBL4184323, “Structure-Guided Design, Synthesis, and Characterization of Next-Generation Meprin β Inhibitors” (J Med Chem, 2018):

What was measured:
[1] = target: T1, BMP1 (Homo sapiens, UniProt P13497); assay: Inhibition of human BMP1 expressed in Escherichia coli assessed as residual activity using Abz-YVADAPK(Dnp)G-OH as substrate at 200 uM by fluorescence assay relative to control; settings: probe Abz-YVADAPK(Dnp)G-OH, read-out: Activity
T1 sequence (P13497 whole entry): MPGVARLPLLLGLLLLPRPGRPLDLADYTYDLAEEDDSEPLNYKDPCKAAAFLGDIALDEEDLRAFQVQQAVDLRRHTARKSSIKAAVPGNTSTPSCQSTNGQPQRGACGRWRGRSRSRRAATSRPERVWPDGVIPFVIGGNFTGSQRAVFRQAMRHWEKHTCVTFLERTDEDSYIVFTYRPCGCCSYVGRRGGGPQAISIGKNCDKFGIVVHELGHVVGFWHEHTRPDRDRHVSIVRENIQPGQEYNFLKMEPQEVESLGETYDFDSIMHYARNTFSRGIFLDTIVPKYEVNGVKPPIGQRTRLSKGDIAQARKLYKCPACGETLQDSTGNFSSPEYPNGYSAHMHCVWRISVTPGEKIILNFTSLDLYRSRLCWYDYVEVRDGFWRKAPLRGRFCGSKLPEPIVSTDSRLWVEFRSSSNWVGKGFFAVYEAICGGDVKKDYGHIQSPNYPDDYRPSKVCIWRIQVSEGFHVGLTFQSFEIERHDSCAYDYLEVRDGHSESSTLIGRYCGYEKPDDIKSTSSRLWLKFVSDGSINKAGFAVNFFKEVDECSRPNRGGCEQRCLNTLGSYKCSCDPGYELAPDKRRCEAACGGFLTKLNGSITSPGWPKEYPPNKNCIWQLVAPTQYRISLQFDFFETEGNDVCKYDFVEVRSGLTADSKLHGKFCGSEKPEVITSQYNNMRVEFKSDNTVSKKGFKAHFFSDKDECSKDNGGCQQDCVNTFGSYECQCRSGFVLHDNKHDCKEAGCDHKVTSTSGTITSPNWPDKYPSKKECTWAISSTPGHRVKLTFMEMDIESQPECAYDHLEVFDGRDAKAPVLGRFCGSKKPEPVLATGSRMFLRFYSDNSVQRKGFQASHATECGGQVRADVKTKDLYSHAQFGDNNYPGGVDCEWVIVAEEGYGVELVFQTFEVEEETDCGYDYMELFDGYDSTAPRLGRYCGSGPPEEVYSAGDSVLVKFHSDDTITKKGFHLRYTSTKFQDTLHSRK

[2] = Drug absorption in Sprague-Dawley rat at 5 mg/kg, po by LC-MS analysis; assay type: ADME, organism-based; settings: in vivo, read-out: Fabs
[3] = target: CYP2C9 (Homo sapiens, UniProt P11712); assay: Inhibition of recombinant human CYP2C9 expressed in baculosomes assessed as residual activity at 25 uM using BOMCC substrate by fluorescence assay relative to control; assay type: ADME; settings: probe BOMCC, read-out: Activity
Chain of CYP2C9 (P11712 whole entry): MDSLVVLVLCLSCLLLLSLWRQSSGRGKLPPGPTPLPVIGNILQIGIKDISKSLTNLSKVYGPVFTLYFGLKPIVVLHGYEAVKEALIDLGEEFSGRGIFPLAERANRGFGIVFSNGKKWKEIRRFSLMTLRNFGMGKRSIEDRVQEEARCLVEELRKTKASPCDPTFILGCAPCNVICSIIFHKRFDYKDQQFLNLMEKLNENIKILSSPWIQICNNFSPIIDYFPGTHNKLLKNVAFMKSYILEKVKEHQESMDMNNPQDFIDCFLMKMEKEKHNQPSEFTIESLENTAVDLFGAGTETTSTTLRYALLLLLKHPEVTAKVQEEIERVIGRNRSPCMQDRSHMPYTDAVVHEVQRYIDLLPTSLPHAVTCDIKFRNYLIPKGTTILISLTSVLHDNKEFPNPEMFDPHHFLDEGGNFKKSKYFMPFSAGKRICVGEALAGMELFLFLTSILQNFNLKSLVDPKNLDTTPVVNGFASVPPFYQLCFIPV

[4] = tested on: SH-SY5Y; assay: Cytotoxicity in human SH-SY5Y cells assessed as cell viability at 100 uM after 24 hrs by CytoTox-ONE-based assay relative to control; assay type: functional; settings: read-out: Activity

**Q.** With `O=C(CN(Cc1cccc(C(=O)O)c1)Cc1cccc(C(=O)O)c1)NO` as the molecule, how does the activity at 200 µM [1] read?
**A.** 87%

**Q.** And the Fa [2]?
**A.** 13%

**Q.** What about the activity at 25 µM [3] of the same molecule?
**A.** 101%

**Q.** What about the viability at 100 µM [4] of the same molecule?
**A.** 96%
